The source of these data is patent US7875647B2, “Heteroaryl-pyrazole derivatives as cannabinoid CB1 receptor antagonists” (Green Cross Corporation, priority 2006, dated 2011).

This assay has as its target T1, Cannabinoid-1 receptor (CB1R) (Rattus norvegicus, UniProt P20272).
T1 construct: The tissue obtained from the brain of SD rats was homogenized; from tissue; host or cells: brain of SD rats (membrane pellet of the homogenate)
As to the kind of experiment: Cannabinoid-1 receptor (CB1R) binding affinity assay ([3H]CP-55940, rat CB-1 receptor binding protocol). The following applies: brain tissue of SD rats, [3H]CP-55940, 30° C. 60 min; read-out: IC50.

T1 sequence (P20272 whole entry): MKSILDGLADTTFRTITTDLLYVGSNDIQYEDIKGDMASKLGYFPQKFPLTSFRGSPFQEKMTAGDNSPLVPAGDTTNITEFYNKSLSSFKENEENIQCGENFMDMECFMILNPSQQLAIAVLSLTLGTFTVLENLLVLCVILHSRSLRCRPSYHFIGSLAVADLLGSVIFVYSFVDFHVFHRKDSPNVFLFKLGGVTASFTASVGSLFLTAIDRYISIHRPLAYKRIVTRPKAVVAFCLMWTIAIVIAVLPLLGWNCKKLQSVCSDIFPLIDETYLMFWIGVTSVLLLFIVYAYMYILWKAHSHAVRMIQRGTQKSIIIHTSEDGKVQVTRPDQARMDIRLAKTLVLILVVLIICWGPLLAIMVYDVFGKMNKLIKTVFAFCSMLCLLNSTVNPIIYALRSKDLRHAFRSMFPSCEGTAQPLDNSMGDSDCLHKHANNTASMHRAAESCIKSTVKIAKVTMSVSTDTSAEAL

In general, IC50 refers to the midpoint of a concentration-inhibition curve. Consider `C=C(C)c1c(-c2nnc(C(C)(C)C)o2)nn(-c2ccc(Cl)cc2Cl)c1-c1ccc(Cl)cc1` [Example 219, 2-tert-butyl-5-(5-(4-chlorophenyl)-1-(2,4-dichlorophenyl)-4-(prop-1-en-2-yl)-1H-pyrazol-3-yl)-1,3,4-oxadiazole], for which the IC50 came to 4.83 nM.

Take “5-(5-(4-Chlorophenyl)-1-(2,4-dichlorophenyl)-4-methyl-1H-pyrazol-3-yl)-1-octyl-1H-tetrazole [Example 604]”: the IC50 was found to be 47.3 nM.

Regarding `Cc1c(-c2nnc(C(C)(C)C)s2)nn(-c2ccc(Cl)cc2Cl)c1-c1ccc(Br)cc1` [Example 369, 2-(5-(4-Bromophenyl)-1-(2,4-dichlorophenyl)-4-methyl-1H-pyrazol-3-yl)-5-tert-butyl-1,3,4-thiadiazole], the IC50 turned out to be 12.5 nM.

For the compound `Cc1c(-c2nnc(C(C)C3CCCCC3)s2)nn(-c2ccc(Cl)cc2Cl)c1-c1ccc(Cl)cc1` (stereo not shown) [Example 392, 2-(5-(4-chlorophenyl)-1-(2,4-dichlorophenyl)-4-methyl-1H-pyrazol-3-yl)-5-(1-cyclohexylethyl)-1,3,4-thiadiazole], the 50% inhibitory concentration (IC50) came out at 46.7 nM.

In the case of `CCc1c(-c2nnc(C3CCCCCC3)s2)nn(-c2ccc(Cl)cc2Cl)c1-c1ccc(Cl)cc1` [Example 397, 2-(5-(4-chlorophenyl)-1-(2,4-dichlorophenyl)-4-ethyl-1H-pyrazol-3-yl)-5-cycloheptyl-1,3,4-thiadiazole], the IC50 worked out at 9.42 nM.

In the case of `Cc1c(-c2nnc(C3(c4ccc(Cl)cc4)CCC3)o2)nn(-c2ccc(Cl)cc2Cl)c1-c1ccc(Cl)cc1` [Example 110, 2-(5-(4-chlorophenyl)-1-(2,4-dichlorophenyl)-4-methyl-1H-pyrazol-3-yl)-5-(1-(4-chlorophenyl)cyclobutyl)-1,3,4-oxadiazole], the half-inhibitory concentration (IC50) was determined as 13 nM.

Consider `CCc1c(-c2nnc(C3(c4cccc(Cl)c4)CC3)o2)nn(-c2ccc(Cl)cc2Cl)c1-c1ccc(Cl)cc1` [Example 258, 2-(5-(4-chlorophenyl)-1-(2,4-dichlorophenyl)-4-ethyl-1H-pyrazol-3-yl)-5-(1-(3-chlorophenyl)cyclopropyl)-1,3,4-oxadiazole], for which the half-maximal inhibitory concentration (IC50) was determined as 8.72 nM.

As to `CCc1c(-c2nnc(C3(c4cccc(Cl)c4)CC3)s2)nn(-c2ccc(Cl)cc2Cl)c1-c1ccc(Cl)cc1` [Example 494, 2-(5-(4-chlorophenyl)-1-(2,4-dichlorophenyl)-4-ethyl-1H-pyrazol-3-yl)-5-(1-(3-chlorophenyl)cyclopropyl)-1,3,4-thiadiazole], the concentration for half-maximal inhibition (IC50) stood at 6.43 nM.

On to `Cc1c(-c2nnc(-c3cccs3)s2)nn(-c2ccc(Cl)cc2Cl)c1-c1ccc(Cl)cc1` [Example 351, 2-(5-(4-chlorophenyl)-1-(2,4-dichlorophenyl)-4-methyl-1H-pyrazol-3-yl)-5-(thiophen-2-yl)-1,3,4-thiadiazole], for which the IC50 stood at 63.3 nM.

With `CC(O)c1c(-c2nnc(C(C)(C)C)o2)nn(-c2ccc(Cl)cc2Cl)c1-c1ccc(Br)cc1` (stereo not shown) [Example 208, 1-(5-(4-bromophenyl)-3-(5-tert-butyl-1,3,4-oxadiazol-2-yl)-1-(2,4-dichlorophenyl)-1H-pyrazol-4-yl)ethanol], the half-inhibitory concentration (IC50) was 6.72 nM.

With `Clc1ccc(-c2c(Cn3cncn3)c(-c3nnc(C4(c5ccc(Cl)cc5Cl)CC4)s3)nn2-c2ccc(Cl)cc2Cl)cc1` [Example 510, 2-(4-((1H-1,2,4-triazol-1-yl)methyl)-5-(4-chlorophenyl)-1-(2,4-dichlorophenyl)-1H-pyrazol-3-yl)-5-(1-(2,4-dichlorophenyl)cyclopropyl)-1,3,4-thiadiazole], the concentration for half-maximal inhibition (IC50) is 11.3 nM.

`CC(C)(C)c1nnc(-c2nn(-c3ccc(Cl)cc3Cl)c(-c3ccc(Cl)cc3)c2Cc2nnn[nH]2)o1` [Example 330, 2-(4-((1H-tetrazol-5-yl)methyl)-5-(4-chlorophenyl)-1-(2,4-dichlorophenyl)-1H-pyrazol-3-yl)-5-tert-butyl-1,3,4-oxadiazole]: the IC50 was found to be 897 nM.

As to `Cc1c(-c2ncc(CC(C)C)s2)nn(-c2ccc(Cl)cc2Cl)c1-c1ccc(Cl)cc1` [Example 646, 2-(5-(4-chlorophenyl)-1-(2,4-dichlorophenyl)-4-methyl-1H-pyrazol-3-yl)-5-isobutylthiazole], the IC50 was determined as 112 nM.

For `Clc1ccc(-c2c(Cl)c(-c3nnc(C4CCC4)o3)nn2-c2ccc(Cl)cc2Cl)cc1` [Example 333, 2-(4-chloro-5-(4-chlorophenyl)-1-(2,4-dichlorophenyl)-1H-pyrazol-3-yl)-5-cyclobutyl-1,3,4-oxadiazole], the IC50 was 150 nM.

`Cc1c(-c2nnc(C3(c4ccc(Cl)cc4)CCC3)o2)nn(-c2c(Cl)cccc2Cl)c1-c1ccc(Cl)cc1` [Example 162, 2-(5-(4-chlorophenyl)-1-(2,6-dichlorophenyl)-4-methyl-1H-pyrazol-3-yl)-5-(1-(4-chlorophenyl)cyclobutyl)-1,3,4-oxadiazole]: the 50% inhibitory concentration (IC50) came to 59.2 nM.

On to `C=Cc1c(-c2nnc(C3(c4ccc(Cl)cc4)CC3)o2)nn(-c2ccc(Cl)cc2Cl)c1-c1ccc(Cl)cc1` [Example 229, 2-(5-(4-chlorophenyl)-1-(2,4-dichlorophenyl)-4-vinyl-1H-pyrazol-3-yl)-5-(1-(4-chlorophenyl)cyclopropyl)-1,3,4-oxadiazole], for which the IC50 was determined as 14.1 nM.

`Clc1ccc(-c2c(Br)c(-c3nnc(C4(c5ccc(Cl)cc5)CC4)s3)nn2-c2ccc(Cl)cc2Cl)cc1` [Example 547, 2-(4-bromo-5-(4-chlorophenyl)-1-(2,4-dichlorophenyl)-1H-pyrazol-3-yl)-5-(1-(4-chlorophenyl)cyclopropyl)-1,3,4-thiadiazole]: the IC50 came out at 12.9 nM.

Consider `Cc1c(-c2nnc(C3(c4ccc(Cl)cc4Cl)CC3)o2)nn(-c2ccc(Cl)cc2Cl)c1-c1ccc(Cl)cc1` [Example 130, 2-(5-(4-chlorophenyl)-1-(2,4-dichlorophenyl)-4-methyl-1H-pyrazol-3-yl)-5-(1-(2,4-dichlorophenyl)cyclopropyl)-1,3,4-oxadiazole], for which the half-maximal inhibitory concentration (IC50) turned out to be 8.14 nM.

Take `C=CCOC(C)(C)c1nnc(-c2nn(-c3ccc(Cl)cc3Cl)c(-c3ccc(Cl)cc3)c2C)s1` [Example 456, 2-(2-(allyloxy)propan-2-yl)-5-(5-(4-chlorophenyl)-1-(2,4-dichlorophenyl)-4-methyl-1H-pyrazol-3-yl)-1,3,4-thiadiazole]: the 50% inhibitory concentration (IC50) turned out to be 61 nM.

For the compound `CCC(C)(C)c1nnc(-c2nn(-c3ccc(Cl)cc3Cl)c(-c3ccccc3)c2C)s1` [Example 420, 2-(1-(2,4-dichlorophenyl)-4-methyl-5-phenyl-1H-pyrazol-3-yl)-5-tert-pentyl-1,3,4-thiadiazole], the IC50 stood at 112 nM.

Take `Cc1c(-c2nnc(CC(F)(F)F)s2)nn(-c2ccc(Cl)cc2Cl)c1-c1ccc(Cl)cc1` [Example 466, 2-(5-(4-chlorophenyl)-1-(2,4-dichlorophenyl)-4-methyl-1H-pyrazol-3-yl)-5-(2,2,2-trifluoroethyl)-1,3,4-thiadiazole]: the concentration for half-maximal inhibition (IC50) was found to be 102 nM.

With `CCc1c(-c2nnc(C3(c4ccc(C)cc4)CC3)o2)nn(-c2ccc(Cl)cc2Cl)c1-c1ccc(Cl)cc1` [Example 151, 2-(5-(4-chlorophenyl)-1-(2,4-dichlorophenyl)-4-ethyl-1H-pyrazol-3-yl)-5-(1-p-tolylcyclopropyl)-1,3,4-oxadiazole], the half-maximal inhibitory concentration (IC50) amounted to 7.05 nM.

`CC(=O)C1(c2nnc(-c3nn(-c4ccc(Cl)cc4Cl)c(-c4ccc(Cl)cc4)c3C)o2)CC1` [Example 286, 1-(1-(5-(5-(4-chlorophenyl)-1-(2,4-dichlorophenyl)-4-methyl-1H-pyrazol-3-yl)-1,3,4-oxadiazol-2-yl)cyclopropyl)ethanone]: the IC50 came out at 9.36 nM.

On to `Cc1c(-c2nnc(-c3ccccc3)s2)nn(-c2ccc(Cl)cc2Cl)c1-c1ccc(Cl)cc1` [Example 356, 2-(5-(4-Chlorophenyl)-1-(2,4-dichlorophenyl)-4-methyl-1H-pyrazol-3-yl)-5-phenyl-1,3,4-thiadiazole], for which the IC50 was found to be 231 nM.

As for `CSCc1c(-c2nnc(C(C)(C)C)o2)nn(-c2ccc(Cl)cc2Cl)c1-c1ccc(SC)cc1` [Example 311, 2-tert-butyl-5-(1-(2,4-dichlorophenyl)-5-(4-(methylthio)phenyl)-4-(methylthiomethyl)-1H-pyrazol-3-yl)-1,3,4-oxadiazole], the 50% inhibitory concentration (IC50) is 25.8 nM.

With `CCc1c(-c2nnc(C3CCCCCC3)s2)nn(-c2ccc(Cl)cc2Cl)c1-c1ccc(Br)cc1` [Example 400, 2-(5-(4-bromophenyl)-1-(2,4-dichlorophenyl)-4-ethyl-1H-pyrazol-3-yl)-5-cycloheptyl-1,3,4-thiadiazole], the IC50 stood at 5.26 nM.

Regarding `CCc1c(-c2nnc(C3(C#N)CC3)s2)nn(-c2ccc(Cl)cc2Cl)c1-c1ccc(Cl)cc1` [Example 491, 1-(5-(5-(4-chlorophenyl)-1-(2,4-dichlorophenyl)-4-ethyl-1H-pyrazol-3-yl)-1,3,4-thiadiazol-2-yl)cyclopropanecarbonitrile], the IC50 worked out at 143 nM.

Turning to `Cc1c(-c2nnnn2C2CCCC2)nn(-c2ccc(Cl)cc2Cl)c1-c1ccc(Cl)cc1` [Example 577, 5-(5-(4-Chlorophenyl)-1-(2,4-dichlorophenyl)-4-methyl-1H-pyrazol-3-yl)-1-cyclopentyl-1H-tetrazole], the IC50 stood at 26.5 nM.

Take `CC(C)(C)c1nnc(-c2nn(-c3ccc(Cl)cc3Cl)c(-c3ccc(Br)cc3)c2C=O)o1` [Example 203, 5-(4-bromophenyl)-3-(5-tert-butyl-1,3,4-oxadiazol-2-yl)-1-(2,4-dichlorophenyl)-1H-pyrazole-4-carbaldehyde]: the 50% inhibitory concentration (IC50) was determined as 18.8 nM.

Take `CCc1c(-c2nnnn2C2CCCC2)nn(-c2ccc(Cl)cc2Cl)c1-c1ccc(Cl)cc1` [Example 610, 5-(5-(4-chlorophenyl)-1-(2,4-dichlorophenyl)-4-ethyl-1H-pyrazol-3-yl)-1-cyclopentyl-1H-tetrazole]: the half-inhibitory concentration (IC50) is 22.6 nM.

Consider `COCc1c(-c2nnc(C(C)(C)C)o2)nn(-c2ccc(Cl)cc2Cl)c1-c1ccc(Cl)cc1` [Example 205, 2-tert-butyl-5-(5-(4-chlorophenyl)-1-(2,4-dichlorophenyl)-4-(methoxymethyl)-1H-pyrazol-3-yl)-1,3,4-oxadiazole], for which the IC50 is 15.4 nM.
